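96-well plates; 48 h exposure; 5 concentrations. Endpoints by linear interpolation between flanking doses. Not reached: highest tested concentration assigned. At the TGI there is no net growth.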
Legend:
Assay in all cases: growth of human tumour cells (NCI), 48 h
UO-31 renal = test system: UO-31 renal
DU-145 prostate = test system: DU-145 prostate
UACC-62 melanoma = test system: UACC-62 melanoma
NCI-H23 lung = test system: NCI-H23 lung
A498 renal = test system: A498 renal
NCI-H522 lung = test system: NCI-H522 lung
U251 CNS = test system: U251 CNS
IGROV1 ovarian = test system: IGROV1 ovarian
RPMI-8226 leukemia = test system: RPMI-8226 leukemia
HCT-116 colon = test system: HCT-116 colon
MDA-N = test system: MDA-N
NCI-H460 lung = test system: NCI-H460 lung
LOX IMVI melanoma = test system: LOX IMVI melanoma
SN12C renal = test system: SN12C renal

SMILES	TGI (UO-31 renal) [µM]	TGI (DU-145 prostate) [µM]	TGI (UACC-62 melanoma) [µM]	TGI (NCI-H23 lung) [µM]	TGI (A498 renal) [µM]	TGI (NCI-H522 lung) [µM]	TGI (U251 CNS) [µM]	TGI (IGROV1 ovarian) [µM]	TGI (RPMI-8226 leukemia) [µM]	TGI (HCT-116 colon) [µM]	TGI (MDA-N) [µM]	TGI (NCI-H460 lung) [µM]	TGI (LOX IMVI melanoma) [µM]	TGI (SN12C renal) [µM]
c1cc(-c2ccc(Oc3ccc(-c4ccncc4)cc3)cc2)ccn1	> 100	> 100	> 100	> 34	> 69.7	> 79.4	> 48.8	> 100	4.96	> 100	> 100	> 94.2	> 100	> 100
O=Cc1cc(O)ccc1Br	> 81	> 100	50.4	71	> 100	> 94.3	41.3	> 100	> 36	47.8	25.6	> 100	33.4	> 100
CCOC(=O)c1cc(NC(=O)c2ccccc2)c(=O)n2c(cc3c(Cl)cccc32)c1O	> 100	> 100	> 100	> 100	> 100	> 100	> 100	> 100	> 100	> 100	> 100	> 100	> 100	> 100
O=C(CCl)Nc1ccc(-c2nc3ccccc3s2)cc1	20.6	38	8.71	10.2	11.7	3.64	3.15	3.3	5.34	5.81	7.89	7.46	2.31	4.2
O=C1C2=Cc3ccccc3CCN2c2ccc([N+](=O)[O-])cc21	97.7	> 100	> 100	> 100	> 100	> 100	> 100	> 100	> 100	> 100	> 100	> 100	> 100	> 100
C=CCSC1=N/C(=C\c2ccco2)C(=O)N1CC=C	> 100	> 100	> 100	> 100	94.1	> 100	> 100	> 100	> 100	> 100	> 100	> 100	> 100	> 100
COc1ccc(C(c2ccccc2)N2C(=O)CCC2C(=O)O)cc1OC (stereo unspecified)	> 100	> 100	> 100	> 100	> 100	> 100	> 100	> 100	> 100	> 100	> 100	> 100	> 100	> 100
Nc1nc(Cl)cc(NCC2(CO)CC(O)C2)n1 (stereo unspecified)	> 100	> 100	> 100	> 100	> 100	> 100	> 100	> 100	> 100	> 100	> 100	> 100	> 100	> 100
O=C1NC(c2ccccc2)C1N(Cc1ccccc1)Cc1ccccc1 (stereo unspecified)	> 100	> 100	> 100	> 100	> 100	> 100	> 100	> 100	> 100	> 100	> 100	> 100	> 100	> 100
COC(=O)/C=C1/OC(c2ccccc2)=CC1=O	31.7	19.4	40	42.9	18.7	39.3	32.1	33.9	23.2	33.2	34.1	43.5	30	38.9
CC1(C)O[C@@H]([C@@H](O)[C@H](O)C2SCCCS2)[C@@H](CO)O1	> 100	> 100	> 100	> 100	> 100	> 100	> 100	> 100	> 100	> 100	> 100	> 100	> 100	> 100
COc1ccc(-c2c(C(=O)Nc3ccccc3)c(-c3ccccc3)n(C3OC(CO)C(O)C(O)C3O)c(=S)c2C#N)cc1 (stereo unspecified)	> 100	> 100	> 100	> 100	> 100	> 100	> 100	> 100	> 100	> 100	> 100	> 100	> 100	> 100
CC1=NN(c2ccccc2Cl)C2(C1)SCC(=O)N2c1nc2ccccc2s1 (stereo unspecified)	> 100	> 100	> 100	> 100	> 100	> 100	> 100	> 100	> 100	> 100	> 100	> 100	> 100	> 100
O=C1C(c2c(O)n(-c3ccccc3)c3ccccc23)=Nc2ccccc21	> 100	> 100	> 100	> 100	75.7	> 100	> 100	> 100	> 100	> 100	> 100	> 100	> 100	> 100

From PubChem BioAssay (NCI)
